Test results: patent publication US10647669B2, “Composition containing lutein/lutein ester and applications thereof” (priority 2016, dated 2020)

Test: Effect of pH on the stability of lutein/lutein ester (absorbance of acetone aqueous solutions)
Assay type: physicochemical
Details: for Absorbance value: acetone aqueous solution; for Retention: after placing for 96 h at pH 1.5; for Change of absorbance values: under strong acid conditions
Experimental: Effect of pH on the Stability of Lutein/Lutein Ester The acetone aqueous solutions of lutein and lutein ester with pH 1.5 and pH 3 were prepared respectively, and the absorbance values at different time period are shown as follows: […]

| Absorbance value (pH 1.5, 0 h) | Absorbance value (pH 1.5, 12 h) | Absorbance value (pH 1.5, 24 h) | Absorbance value (pH 1.5, 36 h) | Absorbance value (pH 1.5, 48 h) | Absorbance value (pH 1.5, 96 h) | Absorbance value (pH 3.0, 0 h) | Absorbance value (pH 3.0, 12 h) | Absorbance value (pH 3.0, 24 h) | Absorbance value (pH 3.0, 36 h) | Absorbance value (pH 3.0, 48 h) | Absorbance value (pH 3.0, 96 h) | Retention [%] | Change of absorbance values | Molecule |
| --- | --- | --- | --- | --- | --- | --- | --- | --- | --- | --- | --- | --- | --- | --- |
| 0.844 | 0.588 | 0.466 | 0.377 | 0.259 | 0.155 | 0.837 | 0.597 | 0.502 | 0.439 | 0.356 | 0.274 | 18.36 | decrease significantly | lutein ester |
| 0.843 | 0.559 | 0.452 | 0.368 | 0.267 | 0.151 | 0.845 | 0.566 | 0.495 | 0.428 | 0.341 | 0.268 | 17.80 | decrease significantly | CC1=C[C@H](O)CC(C)(C)[C@H]1/C=C/C(C)=C/C=C/C(C)=C/C=C/C=C(C)/C=C/C=C(C)/C=C/C1=C(C)C[C@@H](O)CC1(C)C [Lutein, lutein] |
